According to BigSolDB 2.1:

COc1ccc(C(=O)O)cc1
solubility (mole fraction)
Details | 283.15 K | 288.15 K | 293.15 K | 298.15 K | 303.15 K | 308.15 K | 313.15 K | 318.15 K | 323.15 K | 328.15 K
in 2-butanone | 0.0107 | 0.0128 | 0.0149 | 0.0169 | 0.0198 | 0.023 | 0.0266 | 0.0298 | 0.0343 | 0.0394
in THF | 0.0483 | 0.0518 | 0.0562 | 0.0621 | 0.0671 | 0.0731 | 0.078 | 0.085 | 0.0923 | 0.0991
in acetone | 0.0129 | 0.0153 | 0.0173 | 0.0197 | 0.0224 | 0.026 | 0.0298 | 0.032 | 0.0344 | 0.0368
in cyclohexanone | 0.0187 | 0.0203 | 0.022 | 0.025 | 0.0292 | 0.034 | 0.0397 | 0.0449 | 0.0507 | 0.059
in ethyl formate | 0.00442 | 0.00508 | 0.00606 | 0.00738 | 0.00889 | 0.0114 | 0.0135 | 0.0152 | 0.0178 | 0.0195
in ethylene glycol | 0.0022 | 0.00292 | 0.0038 | 0.0046 | 0.00546 | 0.00649 | 0.00768 | 0.00885 | 0.0105 | 0.0126
in isobutanol | 0.00435 | 0.00548 | 0.00691 | 0.00889 | 0.0116 | 0.0143 | 0.0178 | 0.0206 | 0.025 | 0.0288
in isopropyl acetate | 0.00637 | 0.00732 | 0.00833 | 0.00955 | 0.0116 | 0.0135 | 0.0156 | 0.0179 | 0.021 | 0.0246
in n-butanol | 0.00647 | 0.0077 | 0.00946 | 0.011 | 0.0133 | 0.0158 | 0.0186 | 0.0218 | 0.0255 | 0.0302
in n-butyl acetate | 0.00629 | 0.00719 | 0.00867 | 0.0106 | 0.0118 | 0.0136 | 0.0158 | 0.0178 | 0.021 | 0.0244
in n-pentanol | 0.00696 | 0.00853 | 0.0101 | 0.012 | 0.014 | 0.0169 | 0.0197 | 0.0234 | 0.0272 | 0.0313
in n-propyl acetate | 0.00732 | 0.00802 | 0.0089 | 0.0103 | 0.0118 | 0.0136 | 0.0155 | 0.0182 | 0.0209 | 0.0237
in sec-butanol | 0.00623 | 0.00789 | 0.0101 | 0.0121 | 0.0149 | 0.0182 | 0.0219 | 0.0274 | 0.0317 | 0.0362
in toluene | 0.00062 | 0.00086 | 0.0012 | 0.00152 | 0.00196 | 0.00252 | 0.00301 | 0.00369 | 0.0044 | 0.0054
